In patent publication US20160222014A1, “COMPOUNDS FOR REGULATING FAK AND/OR SRC PATHWAYS” (ASANA BIOSCIENCES, LLC, priority 2013, published 2016):
pIC50: −log10 of the molar value.

Legend:
JAK2 = JAK2 (Homo sapiens, UniProt O60674); experiment: JAK2 biochemical potency; conditions: read-out: JAK2 HTRF IC50
recombinant human FAK1 = target: T1, recombinant human FAK1 (Homo sapiens, UniProt Q05397); experiment: FAK1 HTRF assay; assay type: biochemical
T1 construct: fused on or other part: N-terminal 6xHis tag
Outline: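 IC50 values derive from HTRF % inhibition (ratio 665/620 nm, Eu–anti-phosphotyrosine 0.1 nM, SA-APC 12 nM). The kinase step ran 45 min at room temperature, pairing 10 nM His-FAK1(692–end) from baculovirus with 0.5 μM gastrin Tyr87 biotin-peptide and a reagent at 10 μM final, pH 7.4. Compound dilutions began at 10 μM.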

AURKB (Aurora B) enzyme = target: T2, AURKB (Aurora B) enzyme (Homo sapiens, UniProt Q96GD4); experiment: Aurora B HTRF assay; assay type: biochemical; conditions: read-out: AuroraB IC50
T2 construct: purchased Invitrogen PVR 130
Outline: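 Enzyme (5 nM final) and ULight-labelled PLK Ser137 peptide (50 nM) reacted 1 h at room temperature; a 30 μM final component was also present. Detection used EDTA-containing buffer with europium anti-phospho-PLK(Ser137) antibody at 2 nM, 1 h, then time-resolved FRET readout.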

[1] = target: T3, FAK phosphorylated at Y397 in HEK-FAK cell line overexpressing human FL FAK protein (Homo sapiens, UniProt Q05397); experiment: Cell based assay, Phospho-FAK ELISA; conditions: HEK stb; read-out: pFAK EC50 (μM) HEK stb
T3 construct: expressed in transfected cells
Outline: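 Stable HEK293 line overexpressing full-length human FAK, kept under 0.8 mg/mL Zeocin. In lysates, FAK Y397 autophosphorylation was measured by sandwich ELISA: total-FAK capture antibody, biotinylated pY397-specific detection antibody, streptavidin-HRP with TMB substrate.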

Recombinant Src enzyme = target: T4, Recombinant Src enzyme (Homo sapiens, UniProt P12931); experiment: Src HTRF assay; assay type: biochemical
T4 construct: purchased Millipore 14-326; host or cells: Sf21 insect cells
Outline: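 Run as for the FAK HTRF assay (same buffer, supplements, compound preparation and procedure), with dasatinib included. Reaction contained 0.5 μM biotin-tagged Tyk2 synthetic peptide, 5 nM Src made in Sf21 cells, and a pH7.4-buffer-prepared component at 10 μM final.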

JAK2, sequence (O60674 whole entry, species assumed): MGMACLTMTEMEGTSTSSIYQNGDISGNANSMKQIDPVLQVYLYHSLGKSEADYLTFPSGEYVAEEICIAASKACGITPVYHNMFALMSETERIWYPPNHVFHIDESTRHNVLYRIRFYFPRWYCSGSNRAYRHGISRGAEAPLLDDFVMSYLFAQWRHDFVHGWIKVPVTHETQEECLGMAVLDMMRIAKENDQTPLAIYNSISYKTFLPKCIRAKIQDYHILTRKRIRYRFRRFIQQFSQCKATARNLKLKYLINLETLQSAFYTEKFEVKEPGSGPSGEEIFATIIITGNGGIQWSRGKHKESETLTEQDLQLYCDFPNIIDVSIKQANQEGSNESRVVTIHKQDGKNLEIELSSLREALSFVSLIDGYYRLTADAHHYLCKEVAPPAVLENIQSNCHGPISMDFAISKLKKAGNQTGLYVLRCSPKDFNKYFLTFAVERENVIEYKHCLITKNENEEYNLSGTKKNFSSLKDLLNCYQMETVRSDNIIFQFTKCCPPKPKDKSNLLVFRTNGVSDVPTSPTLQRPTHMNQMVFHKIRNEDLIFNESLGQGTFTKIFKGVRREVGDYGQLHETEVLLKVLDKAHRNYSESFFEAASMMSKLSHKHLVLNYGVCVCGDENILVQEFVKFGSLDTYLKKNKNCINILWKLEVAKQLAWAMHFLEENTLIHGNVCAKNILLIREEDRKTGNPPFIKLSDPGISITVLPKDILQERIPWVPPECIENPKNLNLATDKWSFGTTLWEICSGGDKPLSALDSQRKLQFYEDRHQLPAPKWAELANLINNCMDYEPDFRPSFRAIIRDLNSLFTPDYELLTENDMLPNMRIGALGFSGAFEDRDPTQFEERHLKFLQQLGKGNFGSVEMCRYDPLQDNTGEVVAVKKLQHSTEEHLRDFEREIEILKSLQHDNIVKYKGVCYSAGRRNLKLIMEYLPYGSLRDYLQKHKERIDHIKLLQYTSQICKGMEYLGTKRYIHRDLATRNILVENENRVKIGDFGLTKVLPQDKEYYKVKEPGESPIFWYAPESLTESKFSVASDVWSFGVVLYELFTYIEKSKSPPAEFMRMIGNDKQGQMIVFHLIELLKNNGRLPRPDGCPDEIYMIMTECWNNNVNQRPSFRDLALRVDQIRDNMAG
T4 sequence (P12931 whole entry): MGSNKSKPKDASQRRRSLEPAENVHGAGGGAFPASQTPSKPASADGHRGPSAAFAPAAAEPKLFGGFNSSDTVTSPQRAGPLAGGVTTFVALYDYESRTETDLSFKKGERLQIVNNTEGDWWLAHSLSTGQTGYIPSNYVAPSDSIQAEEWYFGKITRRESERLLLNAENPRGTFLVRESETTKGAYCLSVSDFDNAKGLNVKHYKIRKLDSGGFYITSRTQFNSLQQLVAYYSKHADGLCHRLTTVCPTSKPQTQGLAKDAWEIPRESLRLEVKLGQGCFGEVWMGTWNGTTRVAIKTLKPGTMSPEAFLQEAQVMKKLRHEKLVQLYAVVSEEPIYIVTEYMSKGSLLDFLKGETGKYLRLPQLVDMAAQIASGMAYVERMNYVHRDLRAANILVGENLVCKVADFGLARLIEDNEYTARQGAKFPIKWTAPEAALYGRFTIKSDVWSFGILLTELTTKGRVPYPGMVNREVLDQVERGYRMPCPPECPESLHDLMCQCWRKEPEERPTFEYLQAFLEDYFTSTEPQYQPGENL
T2 sequence (Q96GD4 whole entry): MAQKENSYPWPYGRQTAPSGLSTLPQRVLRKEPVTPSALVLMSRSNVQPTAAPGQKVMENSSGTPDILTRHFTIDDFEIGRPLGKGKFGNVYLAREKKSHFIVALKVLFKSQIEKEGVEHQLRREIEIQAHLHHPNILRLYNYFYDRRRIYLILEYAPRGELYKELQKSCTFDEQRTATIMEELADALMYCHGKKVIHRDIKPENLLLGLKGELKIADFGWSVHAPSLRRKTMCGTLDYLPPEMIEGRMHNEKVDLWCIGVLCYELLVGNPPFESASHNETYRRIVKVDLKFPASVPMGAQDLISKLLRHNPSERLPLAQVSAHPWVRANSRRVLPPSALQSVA
T1 sequence (Q05397 422-680 limits assumed): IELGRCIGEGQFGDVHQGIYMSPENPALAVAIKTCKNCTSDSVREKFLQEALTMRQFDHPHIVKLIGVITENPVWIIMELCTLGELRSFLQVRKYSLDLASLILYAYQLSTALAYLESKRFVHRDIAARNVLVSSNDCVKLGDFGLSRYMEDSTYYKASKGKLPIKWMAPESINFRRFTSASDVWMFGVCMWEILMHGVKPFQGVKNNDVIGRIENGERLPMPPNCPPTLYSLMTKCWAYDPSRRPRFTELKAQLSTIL
T3 sequence (Q05397 whole entry): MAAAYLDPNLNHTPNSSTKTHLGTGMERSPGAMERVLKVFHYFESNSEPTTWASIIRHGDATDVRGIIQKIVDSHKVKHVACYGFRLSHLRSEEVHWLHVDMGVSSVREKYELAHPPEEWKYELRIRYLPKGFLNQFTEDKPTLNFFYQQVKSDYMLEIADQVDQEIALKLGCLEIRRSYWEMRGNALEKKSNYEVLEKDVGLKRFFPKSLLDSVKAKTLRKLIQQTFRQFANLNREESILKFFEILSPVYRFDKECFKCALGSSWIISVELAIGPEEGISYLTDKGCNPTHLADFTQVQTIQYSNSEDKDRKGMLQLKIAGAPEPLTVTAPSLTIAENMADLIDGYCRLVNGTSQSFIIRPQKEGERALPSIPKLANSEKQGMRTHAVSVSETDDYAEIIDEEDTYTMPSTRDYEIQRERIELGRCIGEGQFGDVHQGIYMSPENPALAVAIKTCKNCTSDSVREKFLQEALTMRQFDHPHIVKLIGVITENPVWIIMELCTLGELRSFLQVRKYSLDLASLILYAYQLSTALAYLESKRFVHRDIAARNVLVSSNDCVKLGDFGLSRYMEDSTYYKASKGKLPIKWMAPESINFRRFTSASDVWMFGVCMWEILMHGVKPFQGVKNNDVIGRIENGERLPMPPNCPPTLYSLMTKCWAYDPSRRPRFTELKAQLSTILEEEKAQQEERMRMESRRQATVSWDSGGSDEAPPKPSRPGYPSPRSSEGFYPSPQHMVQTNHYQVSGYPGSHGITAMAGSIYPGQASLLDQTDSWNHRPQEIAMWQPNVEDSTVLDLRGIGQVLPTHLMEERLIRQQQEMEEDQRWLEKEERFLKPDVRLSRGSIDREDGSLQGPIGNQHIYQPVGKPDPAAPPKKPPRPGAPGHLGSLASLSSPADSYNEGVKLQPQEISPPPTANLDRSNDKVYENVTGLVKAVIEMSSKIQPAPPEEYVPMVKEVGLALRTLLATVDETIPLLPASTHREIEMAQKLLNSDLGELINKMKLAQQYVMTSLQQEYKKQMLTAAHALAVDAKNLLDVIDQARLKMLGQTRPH

Row | SMILES | pIC50 (JAK2) | pIC50 (recombinant human FAK1) | pIC50 (AURKB (Aurora B) enzyme) | EC50 [1] [µM] | pIC50 (Recombinant Src enzyme)
1 | N#Cc1ccccc1S(=O)(=O)n1ccc2cnc(Nc3ccc(N4CCNCC4)cc3)nc21 [Example 185] | > 7.70 | > 7.70 | > 7.70 | > 1 | –
2 | COc1cc(N2CCNCC2)ccc1Nc1ncc2ccn(S(=O)(=O)c3ccccc3C#N)c2n1 [Example 336] | < 6.00 | > 7.70 | – | – | < 6.00
3 | O=c1[nH]c2ccc(Nc3cc4c(ccn4S(=O)(=O)c4ccccc4OC(F)(F)F)cn3)cc2[nH]1 [Example 118] | < 6.00 | > 7.70 | > 7.70 | – | < 6.00
4 | CN(c1ccccc1Cn1ccc2cnc(Nc3ccc(N4CCOCC4)cc3)nc21)S(C)(=O)=O [Example 111] | > 7.70 | > 7.70 | – | > 1 | –
5 | CN(C)S(=O)(=O)c1ccccc1Cn1ncc2cnc(Nc3ccc4c(c3)CCC(=O)N4)cc21 [Example 204] | > 7.70 | > 7.70 | > 7.70 | > 1 | –
6 | CC(=O)Nc1cccc(Nc2cc3c(ccn3S(=O)(=O)c3ccccc3OC(F)(F)F)cn2)c1 [Example 58] | < 6.00 | – | < 6.00 | – | < 6.00
7 | CN(C)S(=O)(=O)c1ccccc1Cn1ncc2cnc(Nc3ccc(N4CCNCC4)cc3)cc21 [Example 208] | > 7.70 | – | – | > 1 | –
8 | CC(=O)Nc1cccc(Nc2cc3c(cn2)c(C)nn3Cc2ccccc2OC(F)F)c1 [Example 78] | < 6.00 | < 6.00 | – | – | < 6.00
9 | N#Cc1ccccc1S(=O)(=O)n1ncc2cnc(Nc3ccc4c(c3)CCC(=O)N4)nc21 [Example 220] | > 7.70 | – | > 7.70 | – | > 7.70
10 | CC(=O)Nc1ccc(Nc2cc3c(cn2)c(C)nn3Cc2ccccc2OC(F)F)cc1 [Example 81] | < 6.00 | < 6.00 | – | – | < 6.00
11 | COc1cc(N2CCNCC2)ccc1Nc1cc2c(ccn2S(=O)(=O)c2ccccc2C#N)cn1 [Example 348] | < 6.00 | > 7.70 | – | – | < 6.00
12 | C[C@@H]1CN(c2ccc(Nc3ncc4ccn(S(=O)(=O)c5cccc6cccnc56)c4n3)cc2)CCN1 [Example 213] | > 7.70 | > 7.70 | > 7.70 | – | > 7.70
13 | COc1cc(N2CCC(O)CC2)ccc1Nc1ncc2ccn(S(=O)(=O)c3cccc4cccnc34)c2n1 [Example 356] | < 6.00 | > 7.70 | > 7.70 | – | < 6.00
14 | CN(c1ccccc1Cn1ccc2cnc(Nc3ccc(OC4CNC4)cc3)nc21)S(C)(=O)=O [Example 515] | > 7.70 | – | – | > 1 | –
15 | O=S(=O)(c1cccc2cccnc12)n1ccc2cnc(Nc3ccc(N4CCNCC4)c(F)c3)nc21 [Example 194] | > 7.70 | > 7.70 | > 7.70 | – | > 7.70
16 | COc1cc(N2CCNCC2)ccc1Nc1ncc2ccn(Cc3cccnc3N(C)S(C)(=O)=O)c2n1 [Example 337] | < 6.00 | > 7.70 | – | – | < 6.00
17 | CC(=O)Nc1cccc(Nc2cc3c(ccn3S(=O)(=O)c3cccc(OC(F)(F)F)c3)cn2)c1 [Example 55] | < 6.00 | – | < 6.00 | – | < 6.00
18 | COc1cc(N2CCNCC2)ccc1Nc1cc2c(cn1)cnn2S(=O)(=O)c1cccc2cccnc12 [Example 338, N-(2-methoxy-4-(piperazin-1-yl)phenyl)-1-(quinolin-8-ylsulfonyl)-1H-pyrazolo[4,3-c]pyridin-6-amine] | < 6.00 | > 7.70 | – | < 0.02 | < 6.00
19 | CN(c1ccccc1Cn1ccc2cnc(Nc3ccc(N4CCNCC4)cc3)nc21)S(C)(=O)=O [Example 214] | > 7.70 | > 7.70 | – | – | > 7.70

Row | SMILES | pIC50 (JAK2) | pIC50 (recombinant human FAK1) | pIC50 (AURKB (Aurora B) enzyme) | EC50 [1] [µM] | pIC50 (Recombinant Src enzyme)
20 | COc1cc(N2CCNCC2)ccc1Nc1ncc2ccn(S(=O)(=O)c3cccc4cccnc34)c2n1 [Example 327] | < 6.00 | > 7.70 | > 7.70 | – | < 6.00
21 | Cc1cc(Nc2ncc3ccn(Cc4cccnc4N(C)S(C)(=O)=O)c3n2)ccc1N1CCNCC1 [Example 197] | > 7.70 | – | > 7.70 | – | > 7.70
22 | CN(c1ncccc1Cn1ccc2cnc(Nc3ccc(C4=CCNCC4)cc3)nc21)S(C)(=O)=O [Example 206] | > 7.70 | – | > 7.70 | – | > 7.70
23 | O=S(=O)(c1cccc2cccnc12)n1ccc2cnc(Nc3ccc(N4CCNCC4)cc3OC3CCC3)nc21 [Example 358] | < 6.00 | < 6.00 | – | > 1 | < 6.00
24 | COc1cc(N2CCN(CCO)CC2)ccc1Nc1ncc2ccn(S(=O)(=O)c3cccc4cccnc34)c2n1 [Example 347] | < 6.00 | > 7.70 | – | – | < 6.00
25 | O=S(=O)(c1cccc2cccnc12)n1ccc2cnc(Nc3ccc(N4CCN(CCO)CC4)cc3)nc21 [Example 311] | > 7.70 | > 7.70 | > 7.70 | – | > 7.70
26 | O=S(=O)(c1cccc2cccnc12)n1ccc2cnc(Nc3ccc(N4CC5CC4CN5)cc3)cc21 (stereo not drawn) [Example 329] | < 6.00 | > 7.70 | > 7.70 | – | < 6.00
27 | CC(=O)Nc1ccc(Nc2cc3c(ccn3S(=O)(=O)c3cccc(OC(F)(F)F)c3)cn2)cc1 [Example 54] | < 6.00 | – | – | – | < 6.00
28 | C[C@H]1CNCCN1c1ccc(Nc2ncc3ccn(Cc4cccnc4N(C)S(C)(=O)=O)c3n2)cc1 [Example 320] | > 7.70 | – | – | > 1 | –
29 | C[C@@H]1CN(c2ccc(Nc3ncc4ccn(S(=O)(=O)c5ccccc5C#N)c4n3)cc2)CCN1 [Example 243] | > 7.70 | – | > 7.70 | > 1 | –
30 | C[C@H]1CN(c2ccc(Nc3ncc4ccn(S(=O)(=O)c5cccc(C#N)c5)c4n3)cc2)CCN1 [Example 306] | > 7.70 | – | > 7.70 | > 1 | –
31 | CN(c1ncccc1Cn1ccc2cnc(Nc3ccc4c(c3)CCC(=O)N4)nc21)S(C)(=O)=O [Example 5] | > 7.70 | > 7.70 | > 7.70 | – | > 7.70
32 | COc1cc(N2CCNCC2)ccc1Nc1ncc2c(n1)N(S(=O)(=O)c1cccc3cccnc13)CC2(C)C [Example 446] | < 6.00 | > 7.70 | < 6.00 | – | < 6.00
33 | CC(=O)Nc1ccc(Nc2cc3c(cn2)cnn3Cc2cccnc2N(C)S(C)(=O)=O)cc1 [Example 66] | < 6.00 | – | < 6.00 | – | < 6.00
34 | O=S(=O)(c1ccccc1OC(F)(F)F)n1ccc2cnc(Nc3ccc(N4CCOCC4)cc3)cc21 [Example 113] | < 6.00 | – | > 7.70 | – | < 6.00
35 | Cc1nn(Cc2ccccc2OC(F)F)c2cc(Nc3ccc4c(c3)CCC(=O)N4)ncc12 [Example 80] | < 6.00 | – | < 6.00 | – | < 6.00
36 | CN(C)Cc1ccc(Nc2ncc3ccn(S(=O)(=O)c4cccc5cccnc45)c3n2)cc1 [Example 205] | > 7.70 | > 7.70 | > 7.70 | – | –
37 | COc1ccccc1S(=O)(=O)n1ccc2cnc(Nc3ccc4c(c3)CCC(=O)N4)nc21 [Example 106] | > 7.70 | > 7.70 | > 7.70 | – | –
38 | CN(C)C1CCN(c2ccc(Nc3ncc4ccn(Cc5ccccc5N(C)S(C)(=O)=O)c4n3)cc2)CC1 [Example 468] | > 7.70 | > 7.70 | > 7.70 | – | –
